Measured values reported in US8399451B2, “Heterocyclic compounds” (Bristol-Myers Squibb Company, priority 2009, dated 2013).
Where a name gives a salt, the structure may show the parent alone.

How the values were obtained:
S1P1 [1] = target: T1, S1P1 (Homo sapiens, UniProt P21453); experiment: S1P1 Binding Assay (33P-S1P radioligand competition, membranes); design: expressed in transfected cells; host or cells: CHO cells; conditions: membranes from CHO cells expressing human S1P1; 0.03 nM 33P-S1P; rounded to two digits
T1 sequence (P21453 whole entry): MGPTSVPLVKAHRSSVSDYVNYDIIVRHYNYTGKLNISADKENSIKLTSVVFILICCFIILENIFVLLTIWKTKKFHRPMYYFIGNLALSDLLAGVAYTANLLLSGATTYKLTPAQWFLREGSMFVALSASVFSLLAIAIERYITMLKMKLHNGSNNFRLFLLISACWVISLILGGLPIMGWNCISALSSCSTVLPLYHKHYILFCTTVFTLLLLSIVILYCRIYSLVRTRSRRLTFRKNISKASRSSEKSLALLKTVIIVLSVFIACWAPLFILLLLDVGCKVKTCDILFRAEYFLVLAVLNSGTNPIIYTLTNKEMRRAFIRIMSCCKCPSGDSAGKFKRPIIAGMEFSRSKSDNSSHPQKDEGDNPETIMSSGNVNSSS
Description: Membranes were prepared from CHO cells expressing human S1P1. Cells were dissociated in buffer containing 20 mM HEPES, pH 7.5, 50 mM NaCl, 2 mM EDTA and Protease Inhibitor cocktail (Roche), and disrupted on ice using the Polytron homogenizer. The homogenate was centrifuged at 20,000 rpm (48,000 G) and the supernatant was discarded. The membrane pellets were resuspended in buffer containing 50 mM HEPES, pH 7.5, 100 mM NaCl, 1 mM MgCl2, 2 mM EDTA and stored in aliquots at −80° C. after protein concentration determination.
Binding was performed for 45 minutes at room temperature, terminated by collecting the membranes onto GF/B filter plates, and radioactivity was measured by TOPCOUNT®. The competition data of the test compounds over a range of concentrations was plotted as percentage inhibition of radioligand specific binding.
The results in Table A were rounded to two digits.

S1P3 = target: T2, S1P3 (Homo sapiens, UniProt Q99500); experiment: Receptor [35S] GTPγS Binding Assay, membranes from EDG3-Ga15-bla HEK293T cells; format: biochemical; conditions: * detection limit 31,000 nM or 62,000 nM
T2 construct: expressed in transfected cells; host or cells: EDG3-Ga15-bla HEK293T cells
T2 sequence (Q99500 whole entry): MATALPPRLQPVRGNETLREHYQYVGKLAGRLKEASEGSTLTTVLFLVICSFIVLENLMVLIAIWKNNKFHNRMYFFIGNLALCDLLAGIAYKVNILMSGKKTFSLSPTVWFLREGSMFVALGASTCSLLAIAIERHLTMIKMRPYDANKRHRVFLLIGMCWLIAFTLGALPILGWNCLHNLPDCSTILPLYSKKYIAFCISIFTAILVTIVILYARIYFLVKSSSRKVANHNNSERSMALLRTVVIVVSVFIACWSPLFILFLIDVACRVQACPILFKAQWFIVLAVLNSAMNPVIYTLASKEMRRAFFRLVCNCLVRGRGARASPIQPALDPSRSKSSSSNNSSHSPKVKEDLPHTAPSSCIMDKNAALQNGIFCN
Description: (§1) Receptor [35S] GTPγS Binding Assays
(§2) Membranes prepared from S1P1/CHO cells or EDG3-Ga15-bla HEK293T cells were added to the compound plate (40 μl/well, final protein 3 μg/well) with MULTIDROP®. [^35S]GTP (1250 Ci/mmol, Perkin Elmer) was diluted in assay buffer: 20 mM HEPES, pH7.5, 10 mM MgCl2, 150 mM NaCl, 1 mM EGTA, 1 mM DTT, 10 μM GDP, 0.1% fatty acid free BSA, and 10 μg/ml Saponin to 0.4 nM. 40 μl of the [^35S] GTP solution was added to the compound plate with a final concentration of 0.2 nM. […] At the end of incubation, all the mixtures in the compound plate were transferred to a 384 well FB filter plates via GPCR robot system. […] 30 μl of MicroScint 20 scintillation fluid was added to each well for counting at Packard TOPCOUNT®.

S1P1 [2] = target: T1, S1P1; experiment: Receptor [35S] GTPγS Binding Assay, membranes from S1P1/CHO cells; format: biochemical; design: expressed in transfected cells; host or cells: S1P1/CHO cells; conditions: for EC50: membranes from S1P1/CHO cells, read-out: S1P1 GTPγS EC50; for S1P3/S1P1 GTPγS (ratio of S1P3 GTPγS EC50 to S1P1 GTPγS EC50): selectivity ratio calculated from Table B, * may be greater than reported value due to S1P3 assay limits
Description: as §1, §2

SMILES | IC50 (S1P1 [1]) [nM] | EC50 (S1P3) [nM] | EC50 (S1P1 [2]) [nM] | S1P3/S1P1 GTPγS (ratio of S1P3 GTPγS EC50 to S1P1 GTPγS EC50) (S1P1 [2])
O=C(O)C[C@H]1CCCN(C[C@@H](O)c2ccc(-c3noc(-c4cnn(C5CCCCC5)c4C(F)(F)F)n3)cc2)C1 [Example 59, 2-((R)-1-((S)-2-(4-(5-(1-cyclohexyl-5-(trifluoromethyl)-1H-pyrazol-4-yl)-1,2,4-oxadiazol-3-yl)phenyl)-2-hydroxyethyl)piperidin-3-yl)acetic acid, HCl] | – | 2080 | 1.8 | 1160
O=C(O)C[C@H]1CCCN(C[C@@H](O)c2ccc(-c3noc(-c4cnn(-c5ccc(Cl)cn5)c4C(F)(F)F)n3)cc2)C1 [Example 70, 2-((R)-1-((S)-2-(4-(5-(1-(5-chloropyridin-2-yl)-5-(trifluoromethyl)-1H-pyrazol-4-yl)-1,2,4-oxadiazol-3-yl)phenyl)-2-hydroxyethyl)piperidin-3-yl)acetic acid, HCl] | – | 10400 | 1.2 | 8800
O=C(O)C[C@H]1CCCN(C[C@@H](O)c2ccc(-c3noc(-c4cnn(-c5ccc(F)cc5F)c4C(F)(F)F)n3)cc2)C1 [Example 73, 2-((3R)-1-((2S)-2-(4-(5-(1-(2,4-difluorophenyl)-5-(trifluoromethyl)-1H-pyrazol-4-yl)-1,2,4-oxadiazol-3-yl)phenyl)-2-hydroxyethyl)piperidin-3-yl)acetic acid, HCl] | – | 2200 | 2.1 | 1030
Cl.O=C(O)C[C@H]1CCCN(C[C@@H](O)c2ccc(-c3noc(-c4cnn(-c5ccc(F)cn5)c4C(F)(F)F)n3)cc2)C1 [Example 82, 2-((R)-1-((S)-2-(4-(5-(1-(5-fluoropyridin-2-yl)-5-(trifluoromethyl)-1H-pyrazol-4-yl)-1,2,4-oxadiazol-3-yl)phenyl)-2-hydroxyethyl)piperidin-3-yl)acetic acid, HCl] | – | 6090 | 3 | 2050
Cc1ccc(-n2ncc(-c3nc(-c4ccc([C@H](O)CN5CCC[C@H](CC(=O)O)C5)cc4)no3)c2C(F)(F)F)nc1 [Example 94, 2-((R)-1-((S)-2-hydroxy-2-(4-(5-(1-(5-methylpyridin-2-yl)-5-(trifluoromethyl)-1H-pyrazol-4-yl)-1,2,4-oxadiazol-3-yl)phenyl)ethyl)piperidin-3-yl)acetic acid] | – | 6300 | 8.6 | 730
O=C(O)[C@H]1CCCN(C[C@@H](O)c2ccc(-c3noc(-c4cnn(-c5ccc(C(F)(F)F)cn5)c4C(F)(F)F)n3)cc2)C1 [Example 98, (S)-1-((S)-2-hydroxy-2-(4-(5-(5-(trifluoromethyl)-1-(5-(trifluoromethyl)pyridin-2-yl)-1H-pyrazol-4-yl)-1,2,4-oxadiazol-3-yl)phenyl)ethyl)piperidine-3-carboxylic acid, HCl] | – | 3300 | 3 | 1100
O=C(O)[C@H]1CCCN(C[C@@H](O)c2ccc(-c3noc(-c4cnn(-c5ncc(Cl)cc5Cl)c4C(F)(F)F)n3)cc2)C1 [Example 100, (S)-1-((S)-2-(4-(5-(1-(3,5-dichloropyridin-2-yl)-5-(trifluoromethyl)-1H-pyrazol-4-yl)-1,2,4-oxadiazol-3-yl)phenyl)-2-hydroxyethyl) piperidine-3-carboxylic acid, HCl] | – | > 31000 | 6.8 | ≥ 4580*
O=C(O)[C@H]1CCCN(C[C@@H](O)c2ccc(-c3noc(-c4cnn(-c5ccccn5)c4C(F)(F)F)n3)cc2)C1 [Example 104, (S)-1-((S)-2-hydroxy-2-(4-(5-(1-(pyridin-2-yl)-5-(trifluoromethyl)-1H-pyrazol-4-yl)-1,2,4-oxadiazol-3-yl)phenyl)ethyl)pipcridine-3-carboxylic acid] | – | > 31000 | 4.5 | ≥ 6900*
O=C(O)[C@H]1CCCN(C[C@@H](O)c2ccc(-c3noc(-c4cnn(C5CCCCC5)c4C(F)(F)F)n3)cc2)C1 [Example 106, (S)-1-((S)-2-(4-(5-(1-cyclohcxyl-5-(trifluoromethyl)-1H-pyrazol-4-yl)-1,2,4-oxadiazol-3-yl)phenyl)-2-hydroxyethyl) piperidine-3-carboxylic acid] | – | 2250 | 1 | 2250
O=C(O)C[C@H]1CCCN(C[C@@H](O)c2ccc(-c3noc(-c4ncn(-c5ccc(Cl)cc5)c4C(F)(F)F)n3)cc2)C1 [Example 117, 2-((R)-1-((S)-2-(4-(5-(1-(4-Chlorophenyl)-5-(trifluoromethyl)-1H-imidazol-4-yl)-1,2,4-oxadiazol-3-yl)phenyl)-2-hydroxyethyl)piperidin-3-yl)acetic acid] | – | > 62000 | 26 | ≥ 2400*

Next, values leading:

IC50 (S1P1 [1]) [nM] | EC50 (S1P3) [nM] | EC50 (S1P1 [2]) [nM] | S1P3/S1P1 GTPγS (ratio of S1P3 GTPγS EC50 to S1P1 GTPγS EC50) (S1P1 [2]) | SMILES
0.45 | – | – | – | CCCc1c(-c2nc(-c3ccc(C(O)CN4CC(C(=O)O)C4)cc3)no2)noc1-c1ccccc1 (stereo not drawn) [Example 1, 1-(2-Hydroxy-2-(4-(5-(5-phenyl-4-propylisoxazol-3-yl)-1,2,4-oxadiazol-3-yl)phenyl)ethyl)azetidine-3-carboxylic acid]
2.2 | – | – | – | CCCc1c(-c2nc(-c3ccc(C(O)CN4CCCCC4C(=O)O)cc3)no2)noc1-c1ccccc1 (stereo not drawn) [Example 2, 1-(2-Hydroxy-2-(4-(5-(5-phenyl-4-propylisoxazol-3-yl)-1,2,4-oxadiazol-3-yl)phenyl)ethyl)piperidine-2-carboxylic acid]
12 | – | – | – | CCCc1c(-c2nc(-c3ccc(C(O)CN4CC[C@@H]4C(=O)O)cc3)no2)noc1-c1ccccc1 (stereo partly drawn) [Example 7, (2R)-1-(2-Hydroxy-2-(4-(5-(5-phenyl-4-propylisoxazol-3-yl)-1,2,4-oxadiazol-3-yl)phenyl)ethyl)azetidine-2-carboxylic acid]
– | > 62000 | 69 | ≥ 910* | Cc1cccc(-c2noc(-c3nc(-c4ccc(C(O)CN5CCC[C@H](C(=O)O)C5)cc4)no3)c2C(F)(F)F)n1 (stereo partly drawn) [Example 37, (3S)-1-(2-Hydroxy-2-(4-(5-(3-(6-methylpyridin-2-yl)-4-(trifluoromethyl)isoxazol-5-yl)-1,2,4-oxadiazol-3-yl)phenyl)ethyl)piperidine-3-carboxylic acid]
– | 7500 | 5.4 | 1400 | O=C(O)[C@H]1CCCCN1CC(O)c1ccc(-c2noc(-c3onc(-c4ccccc4)c3C(F)(F)F)n2)cc1 (stereo partly drawn) [Example 41, (2R)-1-(2-Hydroxy-2-(4-(5-(3-phenyl-4-(trifluoromethyl)isoxazol-5-yl)-1,2,4-oxadiazol-3-yl)phenyl)ethyl)piperidine-2-carboxylic acid]
– | > 62000 | 360 | ≥ 170* | O=C(O)[C@H]1CCCN(CC(O)c2ccc(-c3noc(-c4ccc(-c5ccccn5)s4)n3)cc2)C1 (stereo partly drawn) [Example 43, (3S)-1-(2-hydroxy-2-(4-(5-(5-(pyridin-2-yl)thiophen-2-yl)-1,2,4-oxadiazol-3-yl)phenyl)ethyl)piperidine-3-carboxylic acid]
– | 8100 | 630 | 13 | Cc1nc(-c2ccccc2)sc1-c1nc(-c2ccc(C(O)CN3CCC[C@H](C(=O)O)C3)cc2)no1 (stereo partly drawn) [Example 46, (3S)-1-(2-hydroxy-2-(4-(5-(4-methyl-2-phenylthiazol-5-yl)-1,2,4-oxadiazol-3-yl)phenyl)ethyl)piperidine-3-carboxylic acid]
– | > 31000 | 1900 | ≥ 16* | O=C(O)[C@H]1CCCN(CC(O)c2ccc(-c3noc(-c4cc(-c5ccc(Cl)cc5)on4)n3)cc2)C1 (stereo partly drawn) [Example 53, (3S)-1-(2-(4-(5-(5-(4-chlorophenyl)isoxazol-3-yl)-1,2,4-oxadiazol-3-yl)phenyl)-2-hydroxyethyl)piperidine-3-carboxylic acid]
– | 24800 | 3.6 | 6900 | O=C(O)C[C@H]1CCCN(C[C@@H](O)c2ccc(-c3noc(-c4cnn(-c5ccccc5Cl)c4C(F)(F)F)n3)cc2)C1 [Example 72, 2-((3R)-1-((2S)-2-(4-(5-(1-(2-chlorophenyl)-5-(trifluoromethyl)-1H-pyrazol-4-yl)-1,2,4-oxadiazol-3-yl)phenyl)-2-hydroxyethyl)piperidin-3-yl)acetic acid, HCl]
